Legend:
[1] = tested on: MES 23.5 and microglia co-cultures; assay: High-affinity [3H] dopamine uptake assay, MES 23.5 and microglia co-cultures; type: cell-based, rat; conditions: no Ganoderma
From the text: (§1) The dopaminergic cell line MES 23.5 was a gift from professor Wei-dong Le, Department of Neurology, Baylor College of Medicine, Houston. The MES 23.5 cells were derived from somatic cell fusion of rat embryonic mesencephalic cells with murine N18TG2 neuroblastoma cells (Crawford, G. D. et al., 1992, J. Neurosci., 12:3392-3398). MES 23.5 cells display many properties of developing neurons of the SN zona compacta and offer several advantages for such initial studies, including greater homogeneity than primary cultures and susceptibility to both free-radical-mediated cytotoxicity and calcium-dependent cell death. […]
(§2) Cells in each well were washed with 1 ml of Krebs-Ringer buffer (16 mM NaH2PO4, 16 mM Na2HPO4, 119 mM NaCl, 4.7 mM KCl, 1.8 mM CaCl2, 1.2 mM MgSO4, 1.3 mM EDTA, and 5.6 mM glucose; pH 7.4). […] After mixing the lysate with 3 ml of scintillation fluid overnight, radioactivity was determined with Perkin Elmer 1450LSC Luminescence Counter (Waltham, USA.). Specific uptake was determined by subtracting the nonspecific counts for the total activity.
(§3) To assess inflammation mediated neurotoxicy, dopaminergic MES23.5 neurons were exposed to 100 μM MPP^+ or 0.25 μg/ml LPS in the absence or presence of microglia co-culture for 24 hr, and neurotoxicity was assessed using [3H] […]

MES 23.5 cells = assay: High-affinity [3H] dopamine uptake assay, MES 23.5 neurons alone; type: cell-based, rat/murine; conditions: 100 μM MPP+ 24 hr, MES23.5 neurons alone, no Ganoderma
From the text: as §1, §2, §3

nitric oxide (NO) = assay: NO assay (Griess reagent) in microglia culture medium; type: cell-based, rat; conditions: stimulus alone: LPS 0.25 μg/ml or MPP+-treated cell membrane fraction 150 μg/ml
Description: (§4) Microglia were isolated and purified from brains of 12-24 hours old Wistar rats supplied by Laboratory Animal Center (Le, W. D. et al., 2001, J. Neurosci., 21:8447-8455). Briefly, after brains were dissected and the meninges removed, the tissues were minced and digested with trypsin (0.25% trypsin-EDTA in 0.1M phosphate buffer) for 20 minutes at 37° C., triturated with a fire-polished Pasteur pipette and filtered through a […] nylon cell strainer. After centrifugation for 5 minutes at 800 rpm, the tissues were suspended into DMEM containing 10% fetal bovine serum (FBS), and seeded in 75 cm^2 flasks at a density of 5×10^5/ml cells per flask.
Two weeks after the seeding, the flasks were shaken at 180 rpm for 4 hours, and the floating cells were collected and centrifuged for 5 minutes at 800 rpm. The cells were resuspended and plated to 96-well plates for further experimental treatment. […]
The production of NO was quantified by measuring the released NO metabolites (nitrates and nitrites) with Griess reagent (Mayer, A. M., 1998, Medicina (B Aires), 58:377-385). […] The medium was incubated with the same volume of Griess reagent at room temperature for 10 minutes before measuring absorbance at 540 nm in a LP-400 ELISA reader (Diagnostics Pasteur, Marne-la-Coquette, France) with appropriate standards. […]

TNF-α mRNA = assay: Real-time PCR of TNF-α mRNA in primary microglial cells; type: cell-based, rat; conditions: stimulus alone vs control cells
From the text: (§5) Total RNA was extracted from primary microglial cells using RNAprep Kit according to the manufacturer's specifications. RNA was primed with random 9 mers and converted into cDNA by reverse transcription (RT) using AMV reverse transcriptase by following the manufacturer's recommended protocol (Schell, J. B. et al., 2007, J. Neuroimmunol., 189:75-87; Liu, B. et al., 2000, J. Pharmacol. Exp. Ther., 293:607-617). The resulting cDNA was then subjected to real-time PCR with SYBR Premix Ex Taq containing a final concentrations of 1×SYBR Green (Molecular Probes) and 0.2 μM of the primer set of interest in a […] reaction. The PCR mixture was run in the DNA engine Opticon 2 (MJ research; Waltham, Mass.). After an initial 10-second 95° C. denaturation step, the reaction was run through 35 cycles at 95° C. for 5 s, 60° C. for 30 s, and 80° C. for 1 s. Melting curve analysis was executed to ensure the resulting products from the reaction had equivalent and appropriate melting temperatures. The specific primers used are listed in Table 1 (Schell, J. B. et al., 2007, J. Neuroimmunol., 189:75-87). The quantification of target transcripts was based on a calibration curve. The “housekeeping” gene β-actin was targeted for an internal control gene. The test gene data were normalized by corresponding β-actin data.

IL-1β = IL-1β ELISA in microglia culture medium; type: cell-based, rat; conditions: stimulus alone: LPS 0.25 μg/ml or MPP+-treated cell membrane fraction 150 μg/ml
Description: as §4
(§6) Two weeks after the seeding, the flasks were shaken at 180 rpm for 4 hours, and the floating cells were collected and centrifuged for 5 minutes at 800 rpm. The cells were resuspended and plated to 96-well plates for further experimental treatment.
(§7) To study the interaction of reactive microglia with MES 23.5 cells, microglia and MES 23.5 cells were co-cultured in 24-well culture plates. Briefly, the purified microglia were plated at a density of 1×10^4/well 1 day before addition of MES 23.5 cells at a ratio of 2:1 (MES 23.5 to microglia). […]
(§8) Samples were prepared similar to NO samples and the production of these factors were determined using rat TNF-α kit, rat IL-1β ELISA kit and superoxide Assay Kit-WST according to the manufacturer's instructions. […]

superoxide = assay: Superoxide assay (Assay Kit-WST) in microglia cultures; type: cell-based, rat; conditions: stimulus alone: LPS 0.25 μg/ml or MPP+-treated cell membrane fraction 150 μg/ml
Description: as §4, §6, §7, §8

TNF-α = TNF-α ELISA in microglia culture medium; type: cell-based, rat; conditions: stimulus alone: LPS 0.25 μg/ml or MPP+-treated cell membrane fraction 150 μg/ml
Description: as §4, §6, §7, §8

IL-1β mRNA = assay: Real-time PCR of IL-1β mRNA in primary microglial cells; type: cell-based, rat; conditions: stimulus alone vs control cells
From the text: as §5

Molecule	decrease in [3H] DA uptake ([1]; 100 μM MPP+ 24 hr, MES23.5 and microglia co-cultures)	decrease in [3H] DA uptake (MES 23.5 cells)	increase of NO level (nitric oxide (NO))	reduction of [3H] DA uptake ([1]; 0.25 LPS 24 hr, neuron-microglia co-cultures)	TNF-α mRNA expression (TNF-α mRNA)	increase of IL-1β level (IL-1β)	increase of superoxide level (superoxide)	increase of TNF-α level (TNF-α)	IL-1β mRNA expression (IL-1β mRNA)
C[n+]1ccc(-c2ccccc2)cc1 [MPP^+]	about 74%	about 66%							
lipopolysaccharide [LPS]			5-11 fold	approximately 50%	significantly increased	6-11 fold	5-11 fold	6-11 fold	significantly increased

Source: US20100278855A1, “NEUROPROTECTIVE GANODERMA COMPOSITIONS AND METHODS OF USE” (priority 2009, published 2010)
